{
  "source": "patent US20240051952A1",
  "about": "“HMOX1 INDUCERS” (Mitobridge Inc., priority 2019, published 2024)",
  "key": {"[1]": {"test_system": "HbSS Townes sickle mice", "experiment": "Heme-induced vaso-occlusion (stasis) in HbSS Townes sickle mice", "assay_type": "in vivo, mouse", "conditions": "1 h after heme infusion", "text": "Townes-SS mice were gavaged once daily with Vehicle or the compound of Example 17 for 8 days. After the last gavage dorsal skin-fold chambers were implanted on the mice and 20-22 flowing venules were selected and mapped in the subcutaneous skin using intravital microscopy. Mice were then infused via the tail vein with Panhematin (3.2 μmols heme/kg body weight). One hour after infusion each venule was re-examined for microvascular stasis (no flow) and data are expressed as % stasis. Stasis values are means+SD. One-Way ANOVA with Dunnett's Multiple comparison to Vehicle ****P<0.0001\nDosing Scheme of HMOX Inducers to HbSS Townes Sickle Mice\nHbSS Townes sickle mice were oral gavaged once daily with Vehicle or the compound of Example 17 listed below for 8 days. To minimize experimental inconsistency, fresh formulation was prepared every day and vortexed prior to drawing test article into syringe for each dosing, and dosing was performed by the same individual throughout the day. The last-day dose was administered by oral gavage 4 hours prior to hemin infusion described below. • 1. Vehicle (0.5% w/v Tween 80 in 0.45% w/v methyl cellulose) • 2. the compound of Example 17 (10 mg/kg PO dosing) • 3. the compound of Example 17 (25 mg/kg PO dosing) • 4. the compound of Example 17 (50 mg/kg PO dosing)\nMeasurement of Vaso-Occlusion (Stasis)\nMale and female sickle mice, approximately 12 weeks of age, were weighed before surgery. Animals were anesthetized with a mixture of ketamine (106 mg/kg) and xylazine (7.2 mg/kg) and dorsal skin-fold chambers (DSFCs) were surgically implanted. On the same day anesthetized mice were placed on a special intravital microscopy stage, and 20-22 flowing subcutaneous venules in the DSFC window were selected and mapped. After venule selection and mapping, hemin chloride (2.677 mM; Frontier Scientific), dissolved in sterile saline containing sodium carbonate (11.36 mM; Sigma-Aldrich) and D-sorbitol (9.59 mM; Sigma-Aldrich), was filtered (0.22 μm), diluted 1:10 in sterile saline (267.7 μM hemin, final) and infused into the tail veins of mice (0.012 ml/g, 3.2 μmols heme/kg body weight). All of the selected venules were re-examined at 1 h after hemin infusion, and the number of static (no flow) venules was counted and expressed as percent stasis. Four hours after hemin infusion, mice were euthanized in a CO2 atmosphere and the liver, spleen and kidneys were removed, flash frozen, and stored at −85° C."}, "[2]": {"test_system": "HMOX1 gene", "experiment": "HMOX1 mRNA expression in HepG2 cells (Nanostring)", "assay_type": "cell-based, human", "conditions": "24 hours treatment", "method": "Example 147. HMOX1 Inducers of the Invention Strongly Increase In Vitro Expression of HMOX1\nRNA Isolation and Quantification of Gene Expression\nHepG2 cells were seeded at 250 k/well in 12-well tissue culture plates coated with collagen (collagen I, rat tail (thin plate coating); ENZO Life Sciences) for approximately 24 hours. The seeded cells were then treated with dose titration of the compound of Example 17 or dimethyl fumarate (DMF) (a Nrf2 activator; Fisher Scientific) via media change, with biological triplicates performed for each treatment. After approximately 24 hours of treatment, cells were visually inspected to confirm that no toxicity occurred with compound treatment. The treated cells were washed with PBS, aspirated, parafilmed and frozen at −80° C. prior to RNA isolation. RNA was isolated using Machery-Nagel isolation kit (NucleoSpin® RNA: catalog 740955.250) and then quantitated using ThermoFisher Nanodrop.\nRNA was diluted for Nanostring gene expression analysis. […]\nThe relative mRNA levels of the HMOX1 gene in HepG2 cells treated with the compound of Example 17 or DMF were measured according to the methods described above. […]"}},
  "note": "Entries after “also recorded” stand apart in the source; their conditions may differ.",
  "data": [
    {"smiles": "Cn1c(Nc2nc3ccccc3o2)nc2cc(C(=O)NCCOCCO)ccc21", "note": "[Example 17, 2-(benzo[d]oxazol-2-ylamino)-N-(2-(2-hydroxyethoxy)ethyl)-1-methyl-1H-benzo[d]imidazole-5-carboxamide]", "values": [
      {"measurement": "stasis", "setting": "[1]; 10 mg/kg PO once daily 8 days", "result": "~17", "unit": "%"},
      {"measurement": "stasis", "setting": "[1]; 25 mg/kg PO once daily 8 days", "result": "~12", "unit": "%"},
      {"measurement": "stasis", "setting": "[1]; 50 mg/kg PO once daily 8 days", "result": "~5", "unit": "%"},
      {"measurement": "microvascular stasis vs Vehicle", "setting": "[1]; 10, 25, 50 mg/kg PO once daily 8 days", "result": "significantly reduced; also recorded: dose responsively inhibit microvascular stasis"},
      {"measurement": "HMOX1 expression, 30 μM compound of Example 17 relative to 250 μM DMF", "setting": "[2]", "result": 4, "unit": "times"},
      {"measurement": "HMOX1 expression compared with DMF", "setting": "[2]; mRNA fold change vs DMSO", "result": "much more strongly than DMF"}
    ]}
  ]
}
